# Results as given in patent US20240218022A1, “ANTI-VISTA MACROCYCLIC PEPTIDES AND COMPOSITIONS” (BRISTOL-MYERS SQUIBB COMPANY, priority 2022, published 2024).
# Where two headings read alike, the source gives them in different places. Starred links: 1 amine or outer side, 2 acyl side, 3 side chain; linkers in the order of their positions; H or OH if unused. Positions of bridges follow the written chain, without caps; N, C: chain ends. Non-standard residues stand in square brackets, D forms with d. Residues, ends and D or L forms follow the SMILES beside them. Phe(3-CF3) = N[C@@H](Cc1cccc(C(F)(F)F)c1)C(=O)O; Phe(4-COOH) = N[C@@H](Cc1ccc(C(=O)O)cc1)C(=O)O; Phe(2,4-F2) = N[C@@H](Cc1ccc(F)cc1F)C(=O)O; Phe(3-Br) = N[C@@H](Cc1cccc(Br)c1)C(=O)O; Phe(3-Me) = Cc1cccc(C[C@H](N)C(=O)O)c1; γGlu = O=C(O)[C@H](CCC(=O)[*:2])N[*:1]; 2Nal = N[C@@H](Cc1ccc2ccccc2c1)C(=O)O; Phe(2-Me) = Cc1ccccc1C[C@H](N)C(=O)O; Cit = NC(=O)NCCC[C@H](N)C(=O)O; Ahp(2) = CCCCC[C@H](N)C(=O)O; NMeNle = CCCC[C@H](NC)C(=O)O; Tle = CC(C)(C)[C@H](N)C(=O)O; NMeV = CN[C@H](C(=O)O)C(C)C; NHexGly = CCCCCCNCC(=O)O; Nle = CCCC[C@H](N)C(=O)O; Orn = NCCC[C@H](N)C(=O)O; Aun = NCCCCCCCCCCC(=O)O; Dap = NC[C@H](N)C(=O)O; AEEA = NCCOCCOCC(=O)O
# Target: T1, mouse VISTA (mVISTA) (Mus musculus, UniProt Q9D659)
# T1 construct: expressed in transfected cells; host or cells: Human embryonic kidney 293T cells
# T1 sequence (Q9D659 33-308): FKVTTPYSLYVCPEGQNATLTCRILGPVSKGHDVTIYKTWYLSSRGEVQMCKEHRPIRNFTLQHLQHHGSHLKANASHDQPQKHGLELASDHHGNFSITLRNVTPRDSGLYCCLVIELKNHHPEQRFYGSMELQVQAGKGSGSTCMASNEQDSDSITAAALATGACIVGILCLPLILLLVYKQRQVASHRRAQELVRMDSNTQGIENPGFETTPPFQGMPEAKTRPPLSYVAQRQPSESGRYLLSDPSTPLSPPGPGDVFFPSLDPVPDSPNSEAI
# Test: Cell-Based Binding High-Content Assay For mVISTA (HC CBA mVISTA)
# Method in brief: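 mVISTA-293T, 4,000 cells/well; cpd ± washout step; biotin-peptide 2 nM final, 30 min RT; SA-Alexa 647 30 min; formaldehyde/Hoechst fix; HCS imaging; 4PL IC50.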
# [1] = cell-based binding high-content assay, mVISTA, the 16th table, read-out: HC CBA mVISTA IC50
SMILES,IC50 (read-out: HC CBA mVISTA IC50),further results
CCCCCCN1CC(=O)N[C@@H](Cc2ccc(O)cc2)C(=O)N[C@@H](CC(C)C)C(=O)N[C@@H](CC(N)=O)C(=O)N[C@@H](CCCNC(=N)N)C(=O)N(C)[C@@H](CCCC)C(=O)N[C@@H](CCCCC)C(=O)N2CCC[C@H]2C(=O)N[C@@H](C(C)(C)C)C(=O)N[C@@H](CC(=O)O)C(=O)N[C@H](C(=O)N[C@@H](CCCN)C(=O)NCCOCCOCC(=O)N[C@@H](CC(=O)O)C(=O)NCCOCCOCC(=O)NCCCCCCCCCCC(=O)O)CSCC(=O)N[C@@H](Cc2ccccc2)C(=O)N[C@@H](Cc2ccc(O)cc2)C(=O)N[C@@H](CC(=O)O)C1=O [compound 2082] ({CH2CO}-FYD[NHexGly]YLNR[NMeNle][Ahp(2)]P[Tle]DC[Orn][AEEA]D[AEEA][Aun]-OH; thioether N-14),,"IC50 (cell-based binding high-content assay, mVISTA, read-out: HC CBA miPrISTA IC50): 27.6 nM"
CCCCCCN1CC(=O)N[C@@H](Cc2ccc(O)cc2)C(=O)N[C@@H](CC(C)C)C(=O)N[C@@H](CC(N)=O)C(=O)N[C@@H](CCCNC(=N)N)C(=O)N(C)[C@@H](CCCC)C(=O)N[C@@H](CCCCC)C(=O)N2CCC[C@H]2C(=O)N[C@@H](C(C)C)C(=O)N[C@@H](CO)C(=O)N[C@H](C(=O)NCC(N)=O)CSCC(=O)N[C@@H](Cc2ccccc2C)C(=O)N[C@@H](Cc2ccc(O)cc2)C(=O)N[C@@H](CC(=O)O)C1=O [compound 1204] ({CH2CO}-[Phe(2-Me)]YD[NHexGly]YLNR[NMeNle][Ahp(2)]PVSCG-NH2; thioether N-14),18.4 nM,
CCCCCCN1CC(=O)N[C@@H](Cc2ccc(O)cc2)C(=O)N[C@@H](CC(C)C)C(=O)N[C@@H](CC(N)=O)C(=O)N[C@@H](CCCNC(=N)N)C(=O)N(C)[C@@H](CCCC)C(=O)N[C@@H](CCCCC)C(=O)N2CCC[C@H]2C(=O)N[C@@H](C(C)(C)C)C(=O)N[C@@H](CO)C(=O)N[C@H](C(=O)NCC(N)=O)CSCC(=O)N[C@@H](Cc2ccccc2)C(=O)N[C@@H](Cc2cccc(Br)c2)C(=O)N[C@@H](CC(=O)O)C1=O [compound 1203] ({CH2CO}-F[Phe(3-Br)]D[NHexGly]YLNR[NMeNle][Ahp(2)]P[Tle]SCG-NH2; thioether N-14),50.7 nM,
CCCCCCN1CC(=O)N[C@@H](Cc2ccc(O)cc2)C(=O)N[C@@H](CCCC)C(=O)N[C@@H](CC(N)=O)C(=O)N[C@@H](CCCNC(=N)N)C(=O)N(C)[C@@H](C(C)C)C(=O)N[C@@H](CCCCC)C(=O)N2CCC[C@H]2C(=O)N[C@@H](C(C)C)C(=O)N[C@@H](CC(=O)O)C(=O)N[C@H](C(=O)NCC(=O)O)CSCC(=O)N[C@@H](Cc2ccccc2)C(=O)N[C@@H](Cc2c[nH]c3ccccc23)C(=O)N[C@@H](CC(=O)O)C1=O [Example 1409] ({CH2CO}-FWD[NHexGly]Y[Nle]NR[NMeV][Ahp(2)]PVDCG-OH; thioether N-14),12.7 nM,
CCCCCCN1CC(=O)N[C@@H](Cc2ccc(O)cc2)C(=O)N[C@@H](C(C)C)C(=O)NCC(=O)N[C@@H](CCCNC(N)=O)C(=O)N[C@@H](CC(C)C)C(=O)N[C@@H](CCCCC)C(=O)N2CCC[C@H]2C(=O)N[C@@H](C(C)C)C(=O)N[C@@H](CC(=O)O)C(=O)N[C@H](C(=O)N[C@@H](CO)C(N)=O)CSCC(=O)N[C@@H](Cc2ccc3ccccc3c2)C(=O)N[C@@H](Cc2ccc(O)cc2)C(=O)N[C@@H](CC(=O)O)C1=O [Ex 1316] ({CH2CO}-[2Nal]YD[NHexGly]YVG[Cit]L[Ahp(2)]PVDCS-NH2; thioether N-14),,IC50 [1]: 10.6 nM
CCCCCCN1CC(=O)N[C@@H](Cc2ccc(O)cc2)C(=O)N[C@@H](CCCC)C(=O)N[C@@H](CC(N)=O)C(=O)N[C@@H](CCCNC(=N)N)C(=O)N(C)[C@@H](CCCC)C(=O)N[C@@H](CCCCC)C(=O)N2CCC[C@H]2C(=O)N[C@@H](C(C)(C)C)C(=O)N[C@@H](CO)C(=O)N[C@H](C(=O)NCCOCCOCC(=O)N[C@@H](CCC(=O)NCCOCCOCC(=O)NCCCCCCCCCCC(=O)O)C(=O)O)CSCC(=O)N[C@@H](Cc2ccc(C(=O)O)cc2)C(=O)N[C@@H](Cc2c[nH]c3ccccc23)C(=O)N[C@@H](CC(=O)O)C1=O [compound 2256] ({CH2CO}-[Phe(4-COOH)]WD[NHexGly]Y[Nle]NR[NMeNle][Ahp(2)]P[Tle]SC[AEEA][γGlu][AEEA][Aun]-OH; thioether N-14),13.8 nM,
CCCCCCN1CC(=O)N[C@@H](Cc2ccc(O)cc2)C(=O)N[C@@H](C(C)C)C(=O)NCC(=O)N[C@@H](CCCNC(=N)N)C(=O)N[C@@H](CC(C)C)C(=O)N[C@@H](CCCCC)C(=O)N2CCC[C@H]2C(=O)N[C@@H](C(C)C)C(=O)N[C@@H](CC(=O)O)C(=O)N[C@H](C(=O)NCC(N)=O)CSCC(=O)N[C@@H](Cc2ccc3ccccc3c2)C(=O)N[C@@H](Cc2c[nH]c3ccccc23)C(=O)N[C@@H](CC(=O)O)C1=O [compound 1228] ({CH2CO}-[2Nal]WD[NHexGly]YVGRL[Ahp(2)]PVDCG-NH2; thioether N-14),,"IC50 (cell-based binding high-content assay, mVISTA, the 15th table, read-out: HC CBA mVISTA IC50): 27.1 nM"
CCCCCCN1CC(=O)N[C@@H](Cc2ccc(O)cc2)C(=O)N[C@@H](CCCC)C(=O)N[C@@H](CC(=O)O)C(=O)N[C@@H](CCCN)C(=O)N[C@@H](CC(C)C)C(=O)N[C@@H](CCCCC)C(=O)N2CCC[C@H]2C(=O)N[C@@H](C(C)C)C(=O)N[C@@H](CC(=O)O)C(=O)N[C@H](C(=O)N[C@@H](CC(=O)O)C(N)=O)CSCC(=O)N[C@@H](Cc2cccc(C)c2)C(=O)N[C@@H](Cc2c[nH]c3ccccc23)C(=O)N[C@@H](CC(=O)O)C1=O [compound 1418] ({CH2CO}-[Phe(3-Me)]WD[NHexGly]Y[Nle]D[Orn]L[Ahp(2)]PVDCD-NH2; thioether N-14),,"IC50 (the 19th table, scaffold drawing 22, read-out: HC CBA mVISTA IC50): 7.6 nM"
CCCCCCN1CC(=O)N[C@@H](Cc2ccc(O)cc2)C(=O)N[C@@H](CC(C)C)C(=O)N[C@@H](CC(N)=O)C(=O)N[C@@H](CCCNC(=N)N)C(=O)N[C@@H](CC(C)C)C(=O)N[C@@H](CCCCC)C(=O)N2CCC[C@H]2C(=O)N[C@@H](C(C)C)C(=O)N[C@@H](CO)C(=O)N[C@H](C(=O)N[C@@H](CC(=O)O)C(=O)NCCOCCOCC(=O)N[C@@H](CC(=O)O)C(=O)NCCOCCOCC(=O)NCCCCCCCCCCC(=O)O)CSCC(=O)N[C@@H](Cc2ccccc2)C(=O)N[C@@H](Cc2ccc(O)cc2)C(=O)N[C@@H](CC(=O)O)C1=O [compound 2004] ({CH2CO}-FYD[NHexGly]YLNRL[Ahp(2)]PVSCD[AEEA]D[AEEA][Aun]-OH; thioether N-14),,"IC50 (cell-based binding high-content assay, mVISTA, read-out: HC CBA miPr ISTA IC50): 49.3 nM"
CCCCCCN1CC(=O)N[C@@H](Cc2ccc(O)cc2)C(=O)N[C@@H](CCCC)C(=O)N[C@@H](CC(N)=O)C(=O)N[C@@H](CCCNC(=N)N)C(=O)N(C)[C@@H](CCCC)C(=O)N[C@@H](CCCCC)C(=O)N2CCC[C@H]2C(=O)N[C@@H](C(C)(C)C)C(=O)N[C@@H](CC(=O)O)C(=O)N[C@H](C(=O)N[C@@H](CN)C(=O)NCCOCCOCC(=O)NCCCCCCCCCCC(=O)O)CSCC(=O)N[C@@H](Cc2ccccc2)C(=O)N[C@@H](Cc2c[nH]c3ccccc23)C(=O)N[C@@H](CC(=O)O)C1=O [Example 2339] ({CH2CO}-FWD[NHexGly]Y[Nle]NR[NMeNle][Ahp(2)]P[Tle]DC[Dap][AEEA][Aun]-OH; thioether N-14),,"IC50 (cell-based binding high-content assay, read-out: HC CBA mVISTA IC50): 26.1 nM"
"CCCCCCN1CC(=O)N[C@@H](Cc2ccc(O)cc2)C(=O)N[C@@H](CCCCC)C(=O)N[C@@H](CC(N)=O)C(=O)N[C@@H](CCCNC(=N)N)C(=O)N(C)[C@@H](CCCC)C(=O)N[C@@H](CCCCC)C(=O)N2CCC[C@H]2C(=O)N[C@@H](C(C)C)C(=O)N[C@@H](CC(=O)O)C(=O)N[C@H](C(=O)NCC(=O)O)CSCC(=O)N[C@@H](Cc2ccc3ccccc3c2)C(=O)N[C@@H](Cc2ccc(F)cc2F)C(=O)N[C@@H](CC(=O)O)C1=O [compound 1201] ({CH2CO}-[2Nal][Phe(2,4-F2)]D[NHexGly]Y[Ahp(2)]NR[NMeNle][Ahp(2)]PVDCG-OH; thioether N-14)",11.9 nM,
CCCCCCN1CC(=O)N[C@@H](Cc2ccc(O)cc2)C(=O)N[C@@H](CC(C)C)C(=O)N[C@@H](CC(N)=O)C(=O)N[C@@H](CCCNC(=N)N)C(=O)N(C)[C@@H](CCCC)C(=O)N[C@@H](CCCCC)C(=O)N2CCC[C@H]2C(=O)N[C@@H](C(C)(C)C)C(=O)N[C@@H](CO)C(=O)N[C@H](C(=O)NCC(N)=O)CSCC(=O)N[C@@H](Cc2cccc(C(F)(F)F)c2)C(=O)N[C@@H](Cc2ccc(O)cc2)C(=O)N[C@@H](CC(=O)O)C1=O [compound 1207] ({CH2CO}-[Phe(3-CF3)]YD[NHexGly]YLNR[NMeNle][Ahp(2)]P[Tle]SCG-NH2; thioether N-14),24.5 nM,
CCCCCCN1CC(=O)N[C@@H](Cc2ccc(O)cc2)C(=O)N[C@@H](CCCC)C(=O)N[C@@H](CC(N)=O)C(=O)N[C@@H](CCCN)C(=O)N(C)[C@@H](CCCC)C(=O)N[C@@H](CCCCC)C(=O)N2CCC[C@H]2C(=O)N[C@@H](C(C)(C)C)C(=O)N[C@@H](CC(=O)O)C(=O)N[C@H](C(=O)N[C@@H](CC(=O)O)C(N)=O)CSCC(=O)N[C@@H](Cc2ccccc2)C(=O)N[C@@H](Cc2c[nH]c3ccccc23)C(=O)N[C@@H](CC(=O)O)C1=O [Example 1373] ({CH2CO}-FWD[NHexGly]Y[Nle]N[Orn][NMeNle][Ahp(2)]P[Tle]DCD-NH2; thioether N-14),14.8 nM,
CCCCCCN1CC(=O)N[C@@H](Cc2ccc(O)cc2)C(=O)N[C@@H](CCCCN)C(=O)N[C@@H](CC(=O)O)C(=O)N[C@@H](CCCN)C(=O)N[C@@H](CC(C)C)C(=O)N[C@@H](CCCCC)C(=O)N2CCC[C@H]2C(=O)N[C@@H](C(C)C)C(=O)N[C@@H](CO)C(=O)N[C@H](C(=O)NCC(=O)O)CSCC(=O)N[C@@H](Cc2ccc3ccccc3c2)C(=O)N[C@@H](Cc2ccc(O)cc2)C(=O)N[C@@H](CC(=O)O)C1=O [Ex 1289] ({CH2CO}-[2Nal]YD[NHexGly]YKD[Orn]L[Ahp(2)]PVSCG-OH; thioether N-14),,IC50 [1]: 25.2 nM
